# In patent publication US5091539A, “Azolyl cycloalkanol derivatives and agricultural fungicides” (Shionogi & Co., Ltd., priority 1984, dated 1992):
# Experiments:
# [1] = tested on: Fusarium oxysporum; test: Control test to damping-off of cucumber (Fusarium oxysporum); assay type: in vivo; details: 500 ppm, soil drench, 14 days
# Procedure: (§1) (1) The fungus causing damping-off of cucumber seedlings, Rhizoctonia solani or Fusarium oxysporum was cultured on a wheat bran medium at 28° C. for 5 days, which was mixed with sterilized soil and cultured for 2 days to prepare the inoculum. Sterilized soil (150 g) was put into a pot of 9 cm in diameter. The surface of the spot was covered with the above inoculum. […] Twenty cucumber seeds (Cultivar: Matsukaze) were sown 2 days after. The pots were kept at 30°±2° C. for 14 days. The infection was observed 14 days after and disease degree and percent disease degree were obtained by setting an evaluation index for each disease sympton.
# (§2) (2) Evaluation [formula] wherein a: number of seeds without germination b: number of seedlings showing damping-off c: number of wilted seedlings d: number of seedlings being a little brownish in cotyledons or at the bottom of the stem e: number of uninfected seedlings [formula] wherein a: number of seeds without germination or seedlings with damping-off b: number of wilted seedlings c: number of seedlings being a little brownish in cotyledons or at the bottom of the stem d: number of uninfected seedlings [formula]
# [2] = tested on: Alternaria kikuchiana; test: Anti-fungal activity in vitro; assay type: cell-based; details: 48 h, GY medium, 28° C., 2 days, spore suspension
# Procedure: (§3) (1) Each test compound was diluted by two-fold dilution with GY medium (2% glucose and 0.4% yeast extract) containing 0.01% Tween 80 (trademark). Every diluted solution was inoculated with spore suspension (10^5-5 spores/ml) of Alternaria kikuchiana or a hyphae disk with agar (4 mm in diameter) of other fungi and incubated at 28° C. for 2 days.
# [3] = tested on: Monilinia fructicola; test: Anti-fungal activity in vitro; assay type: cell-based; details: 48 h, GY medium, 28° C., 2 days
# Procedure: as §3
# [4] = tested on: Diaporthe citri; test: Anti-fungal activity in vitro; assay type: cell-based; details: 48 h, GY medium, 28° C., 2 days
# Procedure: as §3
# [5] = tested on: Pyrenophora graminea; test: Anti-fungal activity in vitro; assay type: cell-based; details: 48 h, GY medium, 28° C., 2 days
# Procedure: as §3
# [6] = tested on: Cochiobolus sativus; test: Anti-fungal activity in vitro; assay type: cell-based; details: 48 h; GY medium, 28° C., 2 days
# Procedure: as §3
# [7] = tested on: Ustilago nuda; test: Anti-fungal activity in vitro; assay type: cell-based; details: 48 h, GY medium, 28° C., 2 days
# Procedure: as §3
# [8] = tested on: Vasla ceratosperma; test: Anti-fungal activity in vitro; assay type: cell-based; details: 48 h; GY medium, 28° C., 2 days
# Procedure: as §3
# [9] = tested on: Corticium rolfsii; test: Anti-fungal activity in vitro; assay type: cell-based; details: Agroathelia rolfsii, 48 h; GY medium, 28° C., 2 days
# Procedure: as §3
# [10] = tested on: Rhizoctonia solani; test: Control test to damping-off of cucumber (Rhizoctonia solani); assay type: in vivo; details: soil drench, 14 days
# Procedure: as §1, §2
# [11] = tested on: Sphaerotheca fuliginea; test: Control test to powdery mildew of cucumber (foliar and soil treatment); assay type: in vivo; details: for Powdery mildew, Foliar Treatment, Curative Effect / Powdery mildew, Foliar Treatment, Protective Effect / Powdery mildew, Soil Treatment, Protective Effect / Foliar Treatment, Curative Effect / Foliar Treatment, Protective Effect / Soil Treatment, Protective Effect: index 0-10
# [12] = tested on: Botrytis cinerea; test: Control test of Botrytis rot (gray mold) of cucumber; assay type: in vivo
# [13] = tested on: Sclerotinia sclerotiorum; test: Control test to Sclerotinia rot of cucumber; assay type: in vivo
# From the text: (1) This test was practised in the same manner as in the above test, control test of Botrytis rot (gray mold) of cucumber, except for using the mycelium of Sclerotinia sclerotiorum as inoculm. The same as in test 2.
# [14] = tested on: powdery mildew of cucumber and Borytis rot (gray mold) of cucumber; test: Comparative test of cis- and trans-isomers; assay type: in vivo; details: cis isomer vs trans isomer, about
# From the text: Each cis- and trans-isomers of 1-(4-chlorophenyl)-2-(1,2,4-triazol-1-yl)cyclohexanol (Compound 22 and the trans-isomer)) and 1-(4-fluorophenyl)-2-(1,2,4-triazol-1-yl)cyclohexanol (Compound 28 and the trans-isomer) are subjected to control test to powdery mildew of cucumber and to Borytis rot (gray mold) of cucumber.
# (§4) (1) Test methods and evaluation are the same as those in Tests 2, 4 and 6.
# [15] = tested on: Sphaerotheca fuliginea; test: Control test to powdery mildew of cucumber by vapor (filter paper disks); assay type: in vivo
# Procedure: (1) The first leaves of young cucumber (Cultivar: Matsukaze) planted in pot of 9 cm in diameter were inoculated with spore suspension of Sphaerotheca fuliginea. After the plants were kept in a greenhouse for 2 days, thin cover plates, 15 mm in diameter, were put on the first leaves. Filter paper disks soaked with 80 μl of test solution at a concentration of 31.3, 7.8, 2.0 or 0.5 ppm were put on the plates for 3 days. Disease degrees were observed 14 days after the inoculation.
# It is evaluated as + when an inhibition zone was observed around the plate, as ± when the inhibition zone has nearly the same diameter (8 mm) as that of plate or as - when there is no inhibition zone.
# as §4
# [16] = tested on: Cladosporium herbarum; test: Anti-fungal activity in vitro; assay type: cell-based; details: 48 h, GY medium, 28° C., 2 days
# Procedure: as §3
# [17] = tested on: Puccinia coronata; test: Control test of crown rust of oat; assay type: in vivo
# Procedure: (1) Young oats (Cultivar: Pc38) grown in pots in a greenhouse were (i) sprayed with 10 ml each of solution of the test compounds at a prescribed concentration and after air-drying, they were inoculated with 15 mg of uredospores of Puccinia coronata per 20 pots (protective spraying) or (ii) sprayed with the test solution 3 days after inoculation of uredospores. After each plant was kept at 20°-25° C. in a greenhouse for 2 weeks, number of uredia was counted on the first leaf.
structure (smiles),measurement,setting,value
"O[C@@]1(c2sc(Cl)c(Cl)c2Cl)CCCC[C@H]1n1cncn1 (relative stereo) [Compound 12, cis-1-(3,4,5-trichloro-2-thienyl)-2-(1,2,4-triazol-1-yl)cyclohexanol]",Disease Degree,[1],17
same,Percent Disease Control,[1],83%
same,MIC,[2],25 µg/mL
same,MIC,[3],1.56 µg/mL
same,MIC,[4],3.13 µg/mL
same,MIC,[5],6.25 µg/mL
same,MIC,[6],3.13 µg/mL
same,MIC,[7],6.25 µg/mL
same,MIC,[8],3.13 µg/mL
same,MIC,[9],1.56 µg/mL
same,Disease Degree,[10]; 500 ppm,0
same,Percent Disease Control,[10]; 500 ppm,100%
same,"Protective Index, Foliar Treatment","[11]; first Table 4, 125 ppm, foliar, 14 days",10
same,"Protective Index, Soil Treatment","[11]; first Table 4, 125 ppm, soil, 14 days",10
"O[C@@]1(c2ccc(F)cc2)CCCC[C@H]1n1cncn1 (relative stereo) [Compound 28, 1-(4-fluorophenyl)-2-(1,2,4-triazol-1-yl)cyclohexanol]","Percent Disease Control, Curative Spraying","[12]; Table 2, 31.3 ppm",48%
same,"Percent Disease Control, Protective Spraying","[12]; Table 2, 31.3 ppm",40%
same,"Percent Disease Control, Curative Spraying","[12]; Table 2, 125 ppm",79%
same,"Percent Disease Control, Protective Spraying","[12]; Table 2, 125 ppm",100%
same,"Gray Mold, Percent Disease Control, Curative Spraying","[12]; Table 9, 7.8 ppm",30%
same,"Gray Mold, Percent Disease Control, Protective Spraying","[12]; Table 9, 7.8 ppm",17%
same,"Gray Mold, Percent Disease Control, Curative Spraying","[12]; Table 9, 31.3 ppm",92%
same,"Gray Mold, Percent Disease Control, Protective Spraying","[12]; Table 9, 31.3 ppm",70%
same,"Gray Mold, Percent Disease Control, Curative Spraying","[12]; Table 9, 125 ppm",98%
same,"Gray Mold, Percent Disease Control, Protective Spraying","[12]; Table 9, 125 ppm",80%
same,"Percent Disease Control, Curative Spraying",[13]; 31.3 ppm,77%
same,"Percent Disease Control, Protective Spraying",[13]; 31.3 ppm,56%
same,"Percent Disease Control, Curative Spraying",[13]; 125 ppm,97%
same,"Percent Disease Control, Protective Spraying",[13]; 125 ppm,80%
same,Disease Degree,[10]; 31.3 ppm,8
same,Percent Disease Control,[10]; 31.3 ppm,92%
same,"Powdery mildew, Foliar Treatment, Curative Effect","[11]; Table 9, 0.03 ppm",0
same,"Powdery mildew, Foliar Treatment, Protective Effect","[11]; Table 9, 0.03 ppm",0
same,"Powdery mildew, Foliar Treatment, Curative Effect","[11]; Table 9, 0.12 ppm",7 (Disease sign is observed on the leaf in about 20%.)
same,"Powdery mildew, Foliar Treatment, Protective Effect","[11]; Table 9, 0.12 ppm",0
same,"Powdery mildew, Foliar Treatment, Curative Effect","[11]; Table 9, 0.5 ppm",10
same,"Powdery mildew, Foliar Treatment, Protective Effect","[11]; Table 9, 0.5 ppm",5 (Disease sign is observed on the leaf in about 30%.)
same,"Powdery mildew, Soil Treatment, Protective Effect","[11]; Table 9, 0.5 ppm",0
same,"Powdery mildew, Foliar Treatment, Curative Effect","[11]; Table 9, 2.0 ppm",10
same,"Powdery mildew, Foliar Treatment, Protective Effect","[11]; Table 9, 2.0 ppm",10
same,"Powdery mildew, Soil Treatment, Protective Effect","[11]; Table 9, 2.0 ppm",9
same,"Powdery mildew, Soil Treatment, Protective Effect","[11]; Table 9, 7.8 ppm",10
same,"Powdery mildew, Soil Treatment, Protective Effect","[11]; Table 9, 31.3 ppm",10
same,"Foliar Treatment, Curative Effect","[11]; second Table 4, 0.5 ppm",5 (Disease sign is observed on the leaf in about 30%.)
same,"Foliar Treatment, Protective Effect","[11]; second Table 4, 0.5 ppm",0
same,"Soil Treatment, Protective Effect","[11]; second Table 4, 0.5 ppm",0
same,"Foliar Treatment, Curative Effect","[11]; second Table 4, 2.0 ppm",9
same,"Foliar Treatment, Protective Effect","[11]; second Table 4, 2.0 ppm",5 (Disease sign is observed on the leaf in about 30%.)
same,"Soil Treatment, Protective Effect","[11]; second Table 4, 2.0 ppm",5 (Disease sign is observed on the leaf in about 30%.)
same,"Foliar Treatment, Curative Effect","[11]; second Table 4, 7.8 ppm",10
same,"Foliar Treatment, Protective Effect","[11]; second Table 4, 7.8 ppm",10
same,"Soil Treatment, Protective Effect","[11]; second Table 4, 7.8 ppm",10
same,"Foliar Treatment, Curative Effect","[11]; second Table 4, 31.3 ppm",10
same,"Foliar Treatment, Protective Effect","[11]; second Table 4, 31.3 ppm",10
same,"Soil Treatment, Protective Effect","[11]; second Table 4, 31.3 ppm",10
same,times more effective than the corresponding trans isomer,[14],4-16 times
same,"Powdery mildew, Vapor Effect","[15]; Table 9, 2.0 ppm",-
same,"Powdery mildew, Vapor Effect","[15]; Table 9, 7.8 ppm",±
same,"Powdery mildew, Vapor Effect","[15]; Table 9, 31.3 ppm",+
O[C@@]1(c2ccccc2Cl)CCCC[C@H]1n1cncn1 (relative stereo) [Compound 32],MIC,[2],3.13 µg/mL
same,MIC,[3],0.39 µg/mL
same,MIC,[4],3.13 µg/mL
same,MIC,[16],1.56 µg/mL
same,MIC,[5],1.56 µg/mL
same,MIC,[6],3.13 µg/mL
same,MIC,[7],3.13 µg/mL
same,MIC,[9],12.5 µg/mL
same,"Percent Disease Control, Curative Spraying",[13]; 31.3 ppm,86%
same,"Percent Disease Control, Protective Spraying",[13]; 31.3 ppm,72%
same,"Percent Disease Control, Curative Spraying",[13]; 125 ppm,94%
same,"Percent Disease Control, Protective Spraying",[13]; 125 ppm,100%
same,Disease Degree,[10]; 31.3 ppm,10
same,Percent Disease Control,[10]; 31.3 ppm,90%
same,"Foliar Treatment, Curative Effect","[11]; second Table 4, 0.5 ppm",7 (Disease sign is observed on the leaf in about 20%.)
same,"Foliar Treatment, Protective Effect","[11]; second Table 4, 0.5 ppm",0
same,"Soil Treatment, Protective Effect","[11]; second Table 4, 0.5 ppm",0
same,"Foliar Treatment, Curative Effect","[11]; second Table 4, 2.0 ppm",10
same,"Foliar Treatment, Protective Effect","[11]; second Table 4, 2.0 ppm",9
same,"Soil Treatment, Protective Effect","[11]; second Table 4, 2.0 ppm",0
same,"Foliar Treatment, Curative Effect","[11]; second Table 4, 7.8 ppm",10
same,"Foliar Treatment, Protective Effect","[11]; second Table 4, 7.8 ppm",10
same,"Soil Treatment, Protective Effect","[11]; second Table 4, 7.8 ppm",10
same,"Foliar Treatment, Curative Effect","[11]; second Table 4, 31.3 ppm",10
same,"Foliar Treatment, Protective Effect","[11]; second Table 4, 31.3 ppm",10
same,"Soil Treatment, Protective Effect","[11]; second Table 4, 31.3 ppm",10
"OC(c1ccc(Cl)cc1)(c1cncnc1)c1ccccc1Cl (stereo not drawn) [Fenarimol, reference compound]",MIC,[2],6.25 µg/mL
same,MIC,[3],3.13 µg/mL
same,MIC,[4],> 50 µg/mL
same,MIC,[16],> 50 µg/mL
same,MIC,[5],12.5 µg/mL
same,MIC,[6],1.56 µg/mL
same,MIC,[7],25 µg/mL
same,MIC,[8],12.5 µg/mL
same,MIC,[9],25 µg/mL
same,"Percent Disease Control, Curative Spraying",[17]; 12.5 ppm,75%
same,"Percent Disease Control, Protective Spraying",[17]; 12.5 ppm,62%
same,"Percent Disease Control, Curative Spraying",[17]; 25 ppm,92%
same,"Percent Disease Control, Protective Spraying",[17]; 25 ppm,89%
same,"Percent Disease Control, Curative Spraying",[17]; 50 ppm,98%
same,"Percent Disease Control, Protective Spraying",[17]; 50 ppm,100%
